{"source": "paper PMC9369325", "about": "“MATE1 Deficiency Exacerbates Dofetilide-Induced Proarrhythmia” (International Journal of Molecular Sciences, 2022)", "key": {"[1]": {"biological_target": "T1, human MATE1 (Homo sapiens, UniProt Q96FL8)", "T1 sequence (Q96FL8 1-570)": "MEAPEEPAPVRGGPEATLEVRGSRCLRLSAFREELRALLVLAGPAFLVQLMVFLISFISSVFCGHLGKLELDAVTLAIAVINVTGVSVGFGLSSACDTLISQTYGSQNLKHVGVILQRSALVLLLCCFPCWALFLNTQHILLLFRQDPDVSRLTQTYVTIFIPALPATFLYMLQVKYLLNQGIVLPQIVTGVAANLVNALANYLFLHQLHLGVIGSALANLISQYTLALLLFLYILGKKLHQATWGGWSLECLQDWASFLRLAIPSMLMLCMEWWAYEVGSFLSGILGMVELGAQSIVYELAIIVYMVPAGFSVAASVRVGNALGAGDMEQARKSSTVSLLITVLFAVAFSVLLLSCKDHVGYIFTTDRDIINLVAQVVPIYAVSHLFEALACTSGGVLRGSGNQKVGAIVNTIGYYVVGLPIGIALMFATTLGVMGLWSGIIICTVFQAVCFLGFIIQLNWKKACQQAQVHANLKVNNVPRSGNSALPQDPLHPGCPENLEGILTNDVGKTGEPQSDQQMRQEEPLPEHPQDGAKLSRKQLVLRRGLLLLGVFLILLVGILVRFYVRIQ", "assay": "cell-based"}, "[2]": {"biological_target": "T2, MATE1 (SLC47A1) (Homo sapiens, UniProt Q96FL8)", "T2 sequence (Q96FL8 1-570)": "T1 sequence (Q96FL8 1-570)", "assay": "in vitro", "settings": "HEK293 cells overexpressing human MATE1"}, "[3]": {"biological_target": "T3, human (h) MATE1 (Homo sapiens, UniProt Q96FL8)", "T3 construct": "host or cells: HEK293 (Flp-In system, pcDNA5/FRT vector)", "T3 sequence (Q96FL8 1-570)": "T1 sequence (Q96FL8 1-570)", "assay": "Uptake of [14C] TEA and [14C] metformin in HEK293 cells overexpressing human MATE1 after preincubation with dofetilide", "assay_type": "cell-based", "settings": "dofetilide 1-50 µM, preincubation 15 min; TEA 2 µM, metformin 5 µM", "experimental": "In brief, cells were seeded in 12- or 24-well plates in phenol red-free DMEM containing 10% FBS, and were incubated at 37 °C for 24 h. […] Uptake studies were performed with [^14C] […]\noverexpressing mouse (m) OCT2, OCTN1, or MATE1. Relative uptake is expressed as percentage change compared with empty vector controls (n = 3). (B) Uptake of [14C] TEA (2 µM) and [14C] metformin (5 µM) in HEK293 cells […]\nfollowed by the co-incubation with TEA and metformin for 15 min. Data represent the mean ± SEM and are expressed as a percentage over vector control. (C) Gene expression of MATE1 in the kidney isolated from untreated male and female wild-type mice (n = 4 per group). (D) Protein expression of MATE1 in the heart isolated from untreated wild-type (WT) and MATE1-/- mice (n=3). Immunohistochemical detection of MATE1 (bottom panels) in the wild-type mouse heart (E) and kidney (F). Tissue staining lacking the primary antibody was performed as a negative control for each tissue group (top panels). Representative images were taken at x40 magnification. (G) […]\n(also on this page, place not known: hMATE1 (% Control) mOCT2mOCTN1mMA TE 1 No PrimaryMATE1 Relative Uptake in of) […]"}, "[4]": {"tested_on": "cardiomyocytes isolated from wild-type or MATE1-deficient mice", "assay": "Ex vivo cardiomyocyte uptake of [3H] dofetilide", "assay_type": "cell-based, mouse", "settings": "[3H] dofetilide 2 µM; cardiomyocytes from MATE1-/- vs wild-type mice", "experimental": "Briefly, hearts from wild-type and MATE1-deficient mice were quickly removed and perfused on a Langendorff’s apparatus at 37 °C. After a 5 min perfusion with Ca^2+-free tyrode solution containing (in mM): 140 NaCl, 5.4 KCl 0.5 MgCl2, 10 Hepes and 5.6 glucose; pH 7.3, the perfusate was then switched to tyrode solution containing Liberase Blendzymes (Roche, Applied Science, IN) for digestion of the connective tissue. After 20 min of digestion, cardiomyocytes were isolated from dissected and triturated hearts and stabilized in BSA containing tyrode solution.\nIsolated cardiomyocytes were then plated in 12 well plates containing Ca^2+ and Mg^2+ free Hank’s balanced salt solution."}, "[5]": {"settings": "humans; cited from earlier work"}}, "data": [{"compound": "COc1cc2c(Nc3ccc(Br)cc3F)ncnc2cc1OCC1CCN(C)CC1", "note": "[Vandetanib, vandetanib]", "values": [{"measurement": "IC50", "setting": "[1]", "result": 130, "unit": "nM"}]}, {"compound": "CCC(C)n1ncn(-c2ccc(N3CCN(c4ccc(OCC5COC(Cn6cncn6)(c6ccc(Cl)cc6Cl)O5)cc4)CC3)cc2)c1=O", "note": "(stereo not shown) [Itraconazole, itraconazole]", "values": [{"measurement": "IC50", "setting": "[1]", "result": 320, "unit": "nM"}]}, {"compound": "CC(=O)N1CCN(c2ccc(OCC3COC(Cn4ccnc4)(c4ccc(Cl)cc4Cl)O3)cc2)CC1", "note": "(stereo not shown) [Ketoconazole, ketoconazole]", "values": [{"measurement": "IC50", "setting": "[1]", "result": 170, "unit": "nM"}]}, {"compound": "CN(CCOc1ccc(NS(C)(=O)=O)cc1)CCc1ccc(NS(C)(=O)=O)cc1", "note": "[dofetilide]", "values": [{"measurement": "Km at 2 min", "setting": "[2]", "result": "6.72 ± 1.71", "unit": "µM"}, {"measurement": "inhibition of MATE1-dependent transport of TEA and metformin", "setting": "[3]", "result": "dose-dependently inhibit"}, {"measurement": "accumulation of dofetilide in cardiomyocytes", "setting": "[4]", "result": "significantly increased in the absence of MATE1"}, {"measurement": "higher dofetilide plasma concentrations in females than males", "setting": "[5]", "result": "14–22%"}]}]}
